The assay addresses T1, recombinant HIV reverse transcriptase (HIV RTR) (Human immunodeficiency virus type 1 group M subtype B, UniProt P04585).
T1 construct: recombinant HIV reverse transcriptase
The experiment in a line: Reverse Transcriptase Assay (incorporation of tritiated deoxyguanosine monophosphate into acid-precipitable cDNA). The following applies: for inhibition of incorporation of deoxyguanosine monophosphate by HIV reverse transcriptase (in words): at the Km values of dGTP and poly r(C).oligo d(G)12-18; for IC50: poly r(C).oligo d(G)12-18 template, dGTP at about Km, 37° C., 45 minutes, read-out: calculated IC50. The class given is biochemical. As to the method:
The assay measures the incorporation of tritiated deoxyguanosine monophosphate by recombinant HIV reverse transcriptase (HIV RTR) (or other RT) into acid-precipitable cDNA at the Km values of dGTP and poly r(C).oligo d(G)12-18.
Thirty uL of a reaction mixture containing equal volumes of: 500 mM Tris.HCl (pH 8.2), 300 mM MgCl2, 1200 mM KCl, 10 mM DTT, 400 μg/mL poly r(c).oligo d(G) [prepared by dissolving 1.5 mg (25 U) poly r(C).oligo d(G) in 1.5 ml sterile distilled H2 O and diluting to 400 μg/ml], 0.1 μCi/μl [^3 H] dGTP, 160 μM dGTP, was added to 10 μl sterile distilled H2 O, 2.5 μl of potential inhibitor. Ten μL of 3.2 nM purified HIV RTR were added to start the reaction. The mixture was incubated at 37° C. for 45 minutes.
After incubation was complete, the tubes were cooled in ice for 5 minutes. Ice-cold 13% TCA containing 10 mM NaPPi (200 μl) was added and the mixture incubated on ice for 30 minutes. The precipitated cDNA was removed by filtration using presoaked glass filters [TCA, NaPPi ]. The precipitate was then washed with 1N HCl, 10 mM NaPPi. The filter discs were then counted in a Packard scintillation counter.
Under these conditions [dGTP] and poly r(C).oligo d(G)12-18 each are approximately equal to the appropriate Km value. Approximately 5-6,000 cpm of [^3 H] GMP are incorporated into acid-precipitable material. The RT reaction is concentration- and time-dependent.

SMILES strings stand for the structures.

Broadly, the IC50 is the concentration that gives 50% inhibition. As for `CCc1cc(CCc2nc3ccccc3o2)c(=O)[nH]c1CO` [Compound (II), 3-[2-(benzoxazol-2-yl)ethyl]-5-ethyl-6-hydroxymethyl-2(1H)-pyridinone], the “inhibition of incorporation of deoxyguanosine monophosphate by HIV reverse transcriptase (in words)” value is “inhibit this incorporation” and the IC50 was approximately 0.044 µM.
For `Cc1[nH]c(=O)c(CCc2nc3ccccc3o2)cc1C(C)O` (racemic) [Compound (I), (+/-)-3-[2-(benzoxazol-2-yl)ethyl]-5-(1-hydroxyethyl)-6-methyl-2(1H)-pyridinone], the “inhibition of incorporation of deoxyguanosine monophosphate by HIV reverse transcriptase (in words)” value is recorded as “inhibit this incorporation” and the IC50 is approximately 18.7 µM.

(Values after patent US5185251A, “Microbial transformation of a substituted pyridinone using actinoplanacete sp. MA 6559” (Merck & Co., Inc., priority 1991, dated 1993).)
